In patent US20080200428A1, “Antiproliferative Drug” (priority 2005, published 2008):
Marks after values point to notes of the source that are not given here.

How the values were obtained:
[1] = system: HBL-100 non-tumour line from healthy mammary ductal epithelium; experiment: In-vitro antiproliferative activity, MTT test; format: cell-based, human; details: 5 days treatment, MTT on day 6, read-out: IC50, concentration necessary to reduce cell growth to 50% of control
Description: (§1) Antiproliferative activity of the conjugates was determined on 2 lines of human mammary carcinoma (MCF-7, MDA-MB-231), and on 2 lines of human ovary carcinoma (SK-OV-3, IGR-OV1) with different Reduced Folate Carrier (RFC) expression, and on a non-tumour line originating from healthy mammary ductal epithelium (HBL-100 line). Cells were incubated in 96-well plates for 5 days in complete medium (consisting of DMEM/F12, with 10% FBS, foetal bovine serum, 1% L-glutamine 100× (200 mM) and 1% penicillin-streptomycin (Euroclone) for MCF-7, IGROV-1 and MDA-MB-231; RPMI-1640 with 10% FBS, foetal bovine serum, 1% L-glutamine 100× (200 mM) and 1% penicillin-streptomycin (Euroclone) for SKOV-1; McCoy's with 10% FBS, foetal bovine serum, 1% L-glutamine 100× (200 mM) and 1% penicillin-streptomycin (Sigma) for HBL-100 at 37° C. and controlled atmosphere (5% CO2), with MTX-Na or with conjugate; the conjugates were tested at doses equimolar with those of MTX-Na, in the range 1-30 nM. Cytotoxicity was determined on day 6 (after 5 days treatments) by the MTT test, by measuring cell viability as the cell metabolic capacity to transform the tetrazolium salt of MTT in the blue formazan, by mitochondrial dehydrogenases; the blue colour is read at 570 nm with a spectrophotometer. The following conjugates were tested.

[2] = system: IGR-OV1 human ovary carcinoma cells; experiment: In-vitro antiproliferative activity, MTT test; format: cell-based; details: 5 days treatment, MTT on day 6, read-out: IC50, concentration necessary to reduce cell growth to 50% of control
Description: as §1

[3] = system: MCF-7 human mammary carcinoma cells; experiment: In-vitro antiproliferative activity, MTT test; format: cell-based; details: 5 days treatment, MTT on day 6, read-out: IC50, concentration necessary to reduce cell growth to 50% of control
Description: as §1

[4] = system: SK-OV-3 human ovary carcinoma cells; experiment: In-vitro antiproliferative activity, MTT test; format: cell-based; details: 5 days treatment, MTT on day 6, read-out: IC50, concentration necessary to reduce cell growth to 50% of control
Description: as §1

B16/F10 melanoma cells = experiment: In-vivo antiproliferative activity: liver metastases after intraspleen implant of B16/F10 melanoma; set-up: species or system BD2F1 mice; details: for Animals free of macroscopically detectable liver metastases over total number of mice / Mice with metastases larger than 3 mm / Mice with more than 3 visible hepatic tumour nodules / Spleen weight: Day 21
Description: BD2F1 mice weighing 18-20 g were implanted intraspleen (i.s) with 100.000 B16/F10 melanoma cells on Day 0, under sterile conditions and Zoletil® (70 mg/kg), anaesthesia, following surgical opening of peritoneum and spleen immobilisation. Tumour cells, suspended in diluted Matrigel® (150 μg/ml), were injected i.s. in a volume of 0.05 ml. The B16F10 melanoma cells were cultured in Modified Eagle Medium. Cells were maintained in a humidified 5% CO2 atmosphere at 37° C. Animals were then randomly divided into 5 groups (each of 7-8 female), implanted i.s. with 100.000 B16/F10 melanoma cells on Day 0, were treated i.v. (on Days 3, 6 and 9) with HA-MTX at 2, 1 and 0.50 mg/kg/day or MTX-Na at 8.5, 6 and 3 mg/kg/day. Doses are referred to equivalents of MTX. The data originate from 4 separate experiments.
The evaluation of livers and counting of liver metastases under a low power stereo microscope equipped with a calibrated grid was performed on Day 21. Livers were then stored in formaldehyde for preparation for light microscopy observations.

[5] = 3 mg MTX/kg/die i.v. on days 3, 6, 9
[6] = 6 mg MTX/kg/die i.v. on days 3, 6, 9
[7] = 8.5 mg MTX/kg/die i.v. on days 3, 6, 9
[8] = 0.5 mg MTX/kg/die i.v. on days 3, 6, 9
[9] = 1 mg MTX/kg/die i.v. on days 3, 6, 9
[10] = 2 mg MTX/kg/die i.v. on days 3, 6, 9

6-O-acetyl-6-O-methotrexyl-hyaluronic acid [Ex 21]
IC50 [1]: 2050 nM
IC50 [2]: 2740 nM
IC50 [3]: 1970 nM
IC50 [4]: 1820 nM

6-O-Butyryl-6-O-methotrexyl-hyaluronic acid [Ex 24]
IC50 [1]: 2110 nM
IC50 [2]: 2160 nM
IC50 [3]: 1700 nM
IC50 [4]: 1670 nM

CN(Cc1cnc2nc(N)nc(N)c2n1)c1ccc(C(=O)N[C@@H](CCC(=O)O)C(=O)O)cc1 [MTX-Na, methotrexate, reference compound]
IC50 [1]: 500 nM
IC50 [2]: 140 nM
IC50 [3]: 81 nM
IC50 [4]: 41 nM
Animals free of macroscopically detectable liver metastases over total number of mice (B16/F10 melanoma cells; [5]): 6/16*
Mice with metastases larger than 3 mm (B16/F10 melanoma cells; [5]): 19%
Mice with more than 3 visible hepatic tumour nodules (B16/F10 melanoma cells; [5]): 38%
Spleen weight (B16/F10 melanoma cells; [5]): 227 ± 36 mg
Animals free of macroscopically detectable liver metastases over total number of mice (B16/F10 melanoma cells; [6]): 7/14**
Mice with metastases larger than 3 mm (B16/F10 melanoma cells; [6]): 0%
Mice with more than 3 visible hepatic tumour nodules (B16/F10 melanoma cells; [6]): 21%
Spleen weight (B16/F10 melanoma cells; [6]): 159 ± 7 mg
Animals free of macroscopically detectable liver metastases over total number of mice (B16/F10 melanoma cells; [7]): 8/16**
Mice with metastases larger than 3 mm (B16/F10 melanoma cells; [7]): 0%
Mice with more than 3 visible hepatic tumour nodules (B16/F10 melanoma cells; [7]): 13%
Spleen weight (B16/F10 melanoma cells; [7]): 149 ± 24 mg

HA-MTX [Ex 18]
Animals free of macroscopically detectable liver metastases over total number of mice (B16/F10 melanoma cells; [8]): 6/15**
Mice with metastases larger than 3 mm (B16/F10 melanoma cells; [8]): 13%
Mice with more than 3 visible hepatic tumour nodules (B16/F10 melanoma cells; [8]): 27%
Spleen weight (B16/F10 melanoma cells; [8]): 155 ± 16 mg
Animals free of macroscopically detectable liver metastases over total number of mice (B16/F10 melanoma cells; [9]): 9/16***
Mice with metastases larger than 3 mm (B16/F10 melanoma cells; [9]): 0%
Mice with more than 3 visible hepatic tumour nodules (B16/F10 melanoma cells; [9]): 31%
Spleen weight (B16/F10 melanoma cells; [9]): 199 ± 27 mg
Animals free of macroscopically detectable liver metastases over total number of mice (B16/F10 melanoma cells; [10]): 14/14***^§
Mice with metastases larger than 3 mm (B16/F10 melanoma cells; [10]): 0%^; 0%°
Mice with more than 3 visible hepatic tumour nodules (B16/F10 melanoma cells; [10]): 0%^; 0%°
Spleen weight (B16/F10 melanoma cells; [10]): 150 ± 37 mg
Dose giving comparable liver metastasis reduction, as fraction of the MTX-Na dose (B16/F10 melanoma cells; 1 and 0.5 mg/kg/day vs 6 and 3 mg/kg/day MTX-Na): ⅙
Prevention of formation of liver metastasis (B16/F10 melanoma cells; both after i.v. and i.p. administration): effective in preventing the formation of liver metastasis
Effect on liver metastases of B16/F10 melanoma (B16/F10 melanoma cells; i.v. 2 mg/kg/day (MTX equivalents) on days 3,6,9): complete disappearance of liver metastases
